Measurements published in patent US20150087673A1, “METHODS FOR USING AND BIOMARKERS FOR AMPK-ACTIVATING COMPOUNDS” (RIGEL PHARMACEUTICALS, INC., priority 2013, published 2015).

Test system: AMPK
Assay: AMPK activation assay (enzyme-linked immunosorbent assay)
Assay type: cell-based
In short: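 Compounds were tested for their capacity to activate the kinase using standard, commercially available kit reagents and procedures.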

Row | SMILES | EC50 [nM]
1 | N#Cc1ccc(CN2CCC(C(=O)Nc3ccc(C(=O)N4CCC(Oc5ccc(F)cc5)CC4)cn3)CC2)cc1 [Compound 173, 1-(4-cyanobenzyl)-N-(5-(4-(4-fluorophenoxy)piperidine-1-carbonyl)pyridin-2-yl)piperidine-4-carboxamide] | < 500
2 | COc1ccc(OC2CCN(C(=O)c3ccc(C(=O)N[C@H]4CC[C@@H](Oc5ccc(C#N)cc5)CC4)nc3)CC2)cc1 [Compound 174, N-((cis)-4-(4-cyanophenoxy)cyclohexyl)-5-(4-(4-methoxyphenoxy)piperidine-1-carbonyl)picolinamide] | < 500
3 | N#Cc1ccc(CN2CCC(C(=O)Nc3ccc(C(=O)N4CCC(C(=O)c5ccc(F)cc5)CC4)cn3)CC2)cc1 [Compound 175, 1-(4-cyanobenzyl)-N-(5-(4-(4-fluorobenzoyl)piperidine-1-carbonyl)pyridin-2-yl)piperidine-4-carboxamide] | < 500
4 | N#Cc1ccc(O[C@H]2CC[C@@H](NC(=O)c3ccc(C(=O)N4CC[C@H](Oc5ccc(F)cc5)C4)cn3)CC2)cc1 [Compound 176, N-((cis)-4-(4-cyanophenoxy)cyclohexyl)-5-((S)-3-(4-fluorophenoxy)pyrrolidine-1-carbonyl)picolinamide] | 1000 to 5000
5 | O=C(Nc1ccc(C(=O)N2CCN(Cc3ccc(F)cc3)CC2)cn1)c1ccc(Oc2ccc(F)cc2)nc1 [Compound 177, N-(5-(4-(4-fluorobenzyl)piperazine-1-carbonyl)pyridin-2-yl)-6-(4-fluorophenoxy)nicotinamide] | 1000 to 5000
6 | COc1ccc(C(=O)C2CCN(C(=O)c3ccc(C(=O)NC4CCN(Cc5ccc(F)cc5)CC4)nc3)CC2)cc1 [Compound 178, N-(1-(4-fluorobenzyl)piperidin-4-yl)-5-(4-(4-methoxybenzoyl)piperidine-1-carbonyl)picolinamide] | < 500
7 | O=C(NC1CCN(Cc2ccc(F)cc2)CC1)c1ccc(C(=O)N2CCC(Oc3ccc(C(F)(F)F)cc3)CC2)cn1 [Compound 179, N-(1-(4-fluorobenzyl)piperidin-4-yl)-5-(4-(4-(trifluoromethyl)phenoxy)piperidine-1-carbonyl)picolinamide] | < 500
8 | O=C(NC1CCN(Cc2ccc(F)cc2)CC1)c1ccc(C(=O)N2CCC(Oc3ccc(F)cc3)CC2)cn1 [Compound 180, N-(1-(4-fluorobenzyl)piperidin-4-yl)-5-(4-(4-fluorophenoxy)piperidine-1-carbonyl)picolinamide] | < 500
9 | O=C(NC1CCN(Cc2ccc(F)cc2)CC1)c1ccc(C(=O)N2CCC(C(=O)c3ccc(F)cc3)CC2)cn1 [Compound 181, 5-(4-(4-fluorobenzoyl)piperidine-1-carbonyl)-N-(1-(4-fluorobenzyl)piperidin-4-yl)picolinamide] | < 500
10 | O=C(NC1CCN(Cc2ccc(F)cc2)CC1)c1ccc(C(=O)N2CC[C@H](Oc3ccc(F)cc3)C2)cn1 [Compound 182, (S)-N-(1-(4-fluorobenzyl)piperidin-4-yl)-5-(3-(4-fluorophenoxy)pyrrolidine-1-carbonyl)picolinamide] | < 500
11 | COc1ccc(OC2CCN(C(=O)c3ccc(C(=O)NC4CCN(Cc5ccc(F)cc5)CC4)nc3)CC2)cc1 [Compound 183, N-(1-(4-fluorobenzyl)piperidin-4-yl)-5-(4-(4-methoxyphenoxy)piperidine-1-carbonyl)picolinamide] | < 500
12 | COc1ccc(O[C@H]2CC[C@@H](NC(=O)c3ccc(C(=O)N4CCC(C(=O)c5ccc(OC)cc5)CC4)cn3)CC2)cc1 [Compound 184, 5-(4-(4-methoxybenzoyl)piperidine-1-carbonyl)-N-((cis)-4-(4-methoxyphenoxy)cyclohexyl)picolinamide] | < 500
13 | COc1ccc(O[C@H]2CC[C@@H](NC(=O)c3ccc(C(=O)N4CCC(Oc5ccc(C(F)(F)F)cc5)CC4)cn3)CC2)cc1 [Compound 185, N-((cis)-4-(4-methoxyphenoxy)cyclohexyl)-5-(4-(4-(trifluoromethyl)phenoxy)piperidine-1-carbonyl)picolinamide] | < 500
